In PMC11522673 (Communications Biology, 2024) one finds Km, kcat and kcat/Km data, which are given here for 3 molecules.

In data set [1] the test system is PglaDRR. Nature of the data set: LC-MS product formation, substrate-inhibition fit. It is filed as biochemical, Papaver glaucum. Particulars: reduction; 500 μM NADPH; Bis-tris, optimized pH and temperature (Table S12).
Data set [2] relates to PlasDRR(REPI). Nature of the data set: LC-MS product formation, substrate-inhibition fit. The following applies: reduction; 500 μM NADPH; Bis-tris, optimized pH and temperature (Table S12). Format: biochemical, Papaver lasiothrix.
Data set [3] has as its system PburDRR. Nature of the data set: LC-MS product formation, substrate-inhibition fit. It is filed as biochemical, Papaver burseri. Particulars: reduction; 500 μM NADPH; Bis-tris, optimized pH and temperature (Table S12).
Data set [4] deals with PglaCOR. Briefly: LC-MS product formation, Michaelis-Menten fit. Format: biochemical, Papaver glaucum. Particulars: reduction; 1 mM NADPH; Bis-tris, optimized pH and temperature (Table S12).
Data set [5] concerns PapoCOR1. Briefly: LC-MS product formation, Michaelis-Menten fit. Format: biochemical, Papaver apokrinomenon. Particulars: reduction; 1 mM NADPH; Bis-tris, optimized pH and temperature (Table S12).
Data set [6] deals with T1, PsomCOR (Papaver somniferum, UniProt Q9SQ68).
T1 sequence (Q9SQ68 1-321): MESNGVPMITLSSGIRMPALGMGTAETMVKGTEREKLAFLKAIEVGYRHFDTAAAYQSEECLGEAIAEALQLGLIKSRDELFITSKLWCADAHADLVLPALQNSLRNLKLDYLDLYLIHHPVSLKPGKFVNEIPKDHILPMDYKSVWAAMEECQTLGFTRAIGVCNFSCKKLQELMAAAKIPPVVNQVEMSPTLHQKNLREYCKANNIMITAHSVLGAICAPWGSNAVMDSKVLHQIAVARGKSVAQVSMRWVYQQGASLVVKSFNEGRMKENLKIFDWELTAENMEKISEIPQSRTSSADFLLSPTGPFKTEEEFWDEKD
Nature of the data set: LC-MS product formation, Michaelis-Menten fit. The following applies: reduction; 1 mM NADPH; Bis-tris, optimized pH and temperature (Table S12).

Data set [7] has as its system PtriCOR3. Briefly: LC-MS product formation, Michaelis-Menten fit. It is filed as biochemical, Papaver triniifolium. Particulars: reduction; 1 mM NADPH; Bis-tris, optimized pH and temperature (Table S12).
Substrate in data set [8]: COc1ccc(CC2=[N+](C)CCc3cc(OC)c(O)cc32)cc1O
Briefly: LC-MS product formation, substrate-inhibition fit. It is filed as biochemical, Papaver somniferum. Particulars: reduction; 500 μM NADPH; Bis-tris, optimized pH and temperature (Table S12).

With `COc1ccc(CC2=[N+](C)CCc3cc(OC)c(O)cc32)cc1O` [1,2-dehydroreticuline], the values for the Km in data set [1], in data set [2] and in data set [3] were 16.4 ± 2.3 µM, 12.3 ± 2.2 µM and 5.5 ± 1 µM, respectively.
On to `COc1ccc2c3c1O[C@H]1C(=O)C=C[C@H]4[C@@H](C2)N(C)CC[C@]314` [codeinone], for which the Km (in general, the substrate concentration at which the rate is half of its maximum) in data set [4] was 78.8 ± 5.6 µM; in data set [5], 117 ± 17.8 µM; in data set [6], 17.4 ± 1.6 µM; in data set [7], 10 ± 0.9 µM.

B1: PsomDRR(REPI) (Papaver somniferum) (protein)
chain: MESSGVPVITLGSGKVMPVLGMGTFEKVGKGSERERLAILKAIEVGYRYFDTAAAYETEEVLGEAIAEALQLGLVKSRDELFISSMLWCTDAHADRVLLALQNSLRNLKLEYVDLYMLPFPASLKPGKITMDIPEEDICRMDYRSVWAAMEECQNLGFTKSIGVSNFSCKKLQELMATANIPPAVNQVEMSPAFQQKKLREYCNANNILVSAISVLGSNGTPWGSNAVLGSEVLKKIAMAKGKSVAQVSMRWVYEQGASLVVKSFSEERLRENLNIFDWELTKEDHEKIGEIPQCRILSAYFLVSPNGPFKSQEELWDDEA
With B1, in data set [8], the Km was 7.3 ± 2.2 µM; the kcat – broadly, the number of substrate molecules converted per active site and unit of time at saturation – was 5.36 ± 1.71 s⁻¹; the kcat/Km – broadly, the second-order rate constant that governs catalysis at low substrate concentration – amounted to 735000 M⁻¹ s⁻¹.
